Assay results reported in patent publication US4742069A, “Sulfonamide containing dihydropyridine derivatives, intermediates and medicinal use” (Hoffmann-La Roche Inc., priority 1984, dated 1988).

Experiments:
[1] = biological target: ^3 H-nifedipine (or ^3 H-nitrendipine) binding, rabbit or guinea pig heart membranes; experiment: 3H-Nifedipine binding determinations; details: for A: % max. inhib. (maximum inhibition of specific binding): reference compound nifedipine established as 100%
Method: A. ^3 H-Nifedipine binding determinations:
The determination is carried out on homogenates or on partially-cleaned membranes of rabbit or guinea pig heart. The reaction mixture (0.3 ml) consists of 0.2-0.8 mg of membrane protein, 1 nM of ^3 H-nifedipine (or 0.25 nM of ^3 H-nitrendipine) and various concentrations of the test substances. The incubation lasts 30 minutes at 25° C. or 37° C. and is stopped by dilution with the incubation buffer; a filtration is subsequently carried out. The filter-bound radioactivity is measured with a scintillation counter. Specific binding (i.e. receptor-bound) is defined as the difference between total and unspecific-bound radioactivity. The unspecific binding is determined in the presence of an excess of non-radioactive nifedipine (1 μM).
The activity (potency) of a compound in this test is defined by the IC50 and % maximum inhibition values (% max. inhibition). The IC50 is the substance concentration (in mol/l) which produces a half-maximum inhibition of the specific ^3 H-nifedipine (or ^3 H-nitrendipine) binding. In the table compound A has an IC50 in mol/l, of 3.0.10^-8 which means 3.0×10^-8. The maximum inhibition of the specific binding is given by the % maximum inhibition value; this value is established as 100% for the reference compound nifedipine. Both parameters are extrapolated from a concentration-binding curve.

[2] = system: narcotized dog; experiment: Hemodynamic parameters in the narcotized dog; assay type: in vivo
Description: C. Hemodynamic parameters in the narcotized dog:
The 4 most important measurement parameters (with respective measurement units) of the hemodynamic experiment are: (1) CBF: Coronary Blood Flow (in ml/min)--the velocity of blood flow through the coronary arteries; (2) HR: heart rate (in beats/min)--the heart frequency; (3) BP: blood pressure (in mm Hg); and (4) dp/dt: rate of increase in left ventricular pressure (in mm Hg/sec) as a measurement of the contractility force of the heart. The values are given as the % maximum variation from the initial value (Δ%) and the duration in minutes of this variation (t) per dosage administered.
There is thus obtained not only an overall picture of the activity of the substance, but also an estimation as to the potential selectivity for a specific part of the circulatory system in the entire organism. After the administration of an anesthetic, the dog is intubated and respired artificially. Blood pH, pCO2, pO2 and hemoglobin are measured hourly with a blood-gas analyzer. The blood pressure (systolic and diastolic) is measured with a probe in the aorta abdominalis. The heart frequency is recorded by means of a tachometer, which is disengaged from the pressure pulse. For the other measurements the heart must first be opened in order that a probe can be inserted in the left ventricle (heart chamber) for the pressure measurements (dp/dt). The coronary blood flow is measured with a flowing probe in the left coronary artery (descendens).
This allows the prediction that they are useful as agents in the control or prevention of angina pectoris, ischemia, high blood pressure and migraine.

[3] = system: KCl contracture of coronary artery strips of dogs (tension-dependent calcium channel); experiment: Coronary artery strips of dogs, relaxation of KCl contracture; assay type: cell-based, dog; details: Canis lupus familiaris; KCl 84.7 mM, 37° C.; read-out: B: IC50 (half-maximum relaxation of KCl contracture)
Method: B. Coronary artery strips of dogs:
In this experiment spiral strips (2-2.5 mm wide and 10 mm long) of coronary arteries of dogs are cut and hung up in an organ chamber under an initial tension of 1.5 g. These strips are pre-incubated for a duration of about 1 to 2 hours in Krebs-Henseleit buffer solution which is gassed with Oxycarbon (a mixture of 95% oxygen and 5% carbon dioxide) at 37° C. The relaxing activity of one of these substances is subsequently tested on a KCl (84.7 mM) contracture by the addition of increasing concentrations of the test substance to the organ chamber. The calcium channel-blocking activity of the test substances can therefore be established, as the KCl contracture occurs exclusively by means of calcium flow through the tension-dependent calcium channel.
The activity of a test substance in this test is given by the IC50 value. This value is defined as the substance concentration (in mol/l) which produces a half-maximum relaxation of a KCl contracture. This value is also extrapolated from the resulting concentration-activity curve.

Row | Compound | IC50 ([1]; read-out: IC50 (half-maximum inhibition of specific 3H-nifedipine binding), as repeated in the text) | A: % max. inhib. (maximum inhibition of specific binding) [1] | BP blood pressure, duration of variation (t) ([2]; 0.03 mg/kg p.o.) | BP blood pressure, maximum variation from initial value (Δ%) ([2]; 0.03 mg/kg p.o.) | CBF coronary blood flow, duration of variation (t) ([2]; 0.03 mg/kg p.o.) | CBF coronary blood flow, maximum variation from initial value (Δ%) ([2]; 0.03 mg/kg p.o.) | HR heart rate, duration of variation (t) ([2]; 0.03 mg/kg p.o.) | HR heart rate, maximum variation from initial value (Δ%) ([2]; 0.03 mg/kg p.o.) | dp/dt rate of increase in left ventricular pressure, maximum variation from initial value (Δ%) ([2]; 0.03 mg/kg p.o.) | dp/dt, duration of variation (t) ([2]; 0.03 mg/kg p.o.) | IC50 [3] | BP blood pressure, duration of variation (t) ([2]; 0.1 mg/kg p.o.) | BP blood pressure, maximum variation from initial value (Δ%) ([2]; 0.1 mg/kg p.o.) | CBF coronary blood flow, duration of variation (t) ([2]; 0.1 mg/kg p.o.) | CBF coronary blood flow, maximum variation from initial value (Δ%) ([2]; 0.1 mg/kg p.o.) | HR heart rate, duration of variation (t) ([2]; 0.1 mg/kg p.o.) | HR heart rate, maximum variation from initial value (Δ%) ([2]; 0.1 mg/kg p.o.) | dp/dt rate of increase in left ventricular pressure, maximum variation from initial value (Δ%) ([2]; 0.1 mg/kg p.o.) | dp/dt, duration of variation (t) ([2]; 0.1 mg/kg p.o.)
1 | CCNS(=O)(=O)CC(=O)C1=C(C)NC(C)=C(C(=O)OC(C)C)C1c1cccc([N+](=O)[O-])c1 (centres unmarked) [A, 5-[(Ethylsulfamoyl)acetyl]-1,4-dihydro-2,6-dimethyl-4-(3-nitrophenyl)nicotinic acid isopropyl ester] | 30 nM | 100% | > 60 min | -13% | 90 min | 98% | 60 min | -11% | 37% | 90 min | 6.8 nM |  |  |  |  |  |  |  | 
2 | CCCOCCOC(=O)C1=C(C)NC(C)=C(C(=O)CS(=O)(=O)NC(C)C)C1c1cccc([N+](=O)[O-])c1 (centres unmarked) [F, 1,4-dihydro-5-[(isopropylsulfamoyl)acetyl]-2,6-dimethyl-4-(3-nitrophenyl)nicotinic acid 2-propoxyethyl ester] |  | 99% | > 60 min | -11% | 120 min | 56% | 16 min | -5% | 34% | 60 min | 0.6 nM |  |  |  |  |  |  |  | 
3 | CC1=C(C(=O)CS(=O)(=O)NC(C)C)C(c2cc([N+](=O)[O-])ccc2Cl)C(C(=O)OC(C)C)=C(C)N1 (centres unmarked) [D, 4-(2-chloro-5-nitrophenyl)-1,4-dihydro-5-[(isopropylsulfamoyl)acetyl]-2,6-dimethylnicotinic acid isopropyl ester] |  | 100% | > 60 min | -9% | > 120 min | 68% | 60 min | -5% | 75% | 90 min | 0.82 nM |  |  |  |  |  |  |  | 
4 | CNS(=O)(=O)CC(=O)C1=C(C)NC(C)=C(C(=O)OCC(F)(F)F)C1c1cccc([N+](=O)[O-])c1 (centres unmarked) [C, 1,4-dihydro-2,6-dimethyl-5-[(methylsulfamoyl)acetyl]-4-(3-nitrophenyl)nicotinic acid 2,2,2-trifluoroethyl ester] |  | 100% |  |  |  |  |  |  |  |  | 9.5 nM | > 180 min | -16% | 180 min | 88% | 120 min | +2% | 33% | 180 min
5 | CC1=C(C(=O)CS(=O)(=O)NC(C)C)[C@H](c2cccc([N+](=O)[O-])c2)C(C(=O)O[C@@H](C)c2ccccc2)=C(C)N1 [G, (S)-1,4-dihydro-5-[(isopropylsulfamoyl)acetyl]-2,6-dimethyl-4-(3-nitrophenyl)nicotinic acid (S)-1-phenylethyl ester] |  | 100% | > 120 min | -36% | > 120 min | 57% | > 120 min | -13% | 29% | > 120 min | 7.4 nM |  |  |  |  |  |  |  | 
6 | CNS(=O)(=O)CC(=O)C1=C(C)NC(C)=C(C(=O)OC(C)C)C1c1cccc([N+](=O)[O-])c1 (centres unmarked) [B, 1,4-dihydro-2,6-dimethyl-5-[(methylsulfamoyl)acetyl]-4-(3-nitrophenyl)nicotinic acid isopropyl ester] |  | 94% | > 90 min | -8% | > 90 min | 120% |  | 0% | 10% | > 90 min | 16 nM |  |  |  |  |  |  |  | 
7 | COC(=O)C1=C(C)NC(C)=C(C(=O)OC)C1c1ccccc1[N+](=O)[O-] [nifedipine, reference compound] |  | 100% |  |  |  |  |  |  |  |  |  |  |  |  |  |  |  |  | 
8 | CC1=C(C(=O)CS(=O)(=O)NC(C)C)C(c2cc(Cl)ccc2Cl)C(C(=O)OC(C)C)=C(C)N1 (centres unmarked) [E, 4-(2,5-dichlorophenyl)-1,4-dihydro-5-[(isopropylsulfamoyl)acetyl]-2,6-dimethylnicotinic acid isopropyl ester] |  | 100% | > 120 min | -16% | 70 min | 104% | 120 min | -14% | 65% | 90 min | 6.6 nM |  |  |  |  |  |  |  | 
